# Source: ChEMBL document CHEMBL3045223, “Synthesis, nematicidal and antimicrobial properties of Bis-[4-methoxy-3-[3-(4-fluorophenyl)-6-(4-methylphenyl)-2(aryl)-tetrahydro-2H-pyrazolo[3,4-d]thiazol-5-yl]phenyl]methanes” (2009)
# Calls of active or inactive are those of the source. The rule behind the calls is not given here.
# Legend:
# Format in all cases: functional
# [1] = tested on: Candida albicans; assay: Antifungal activity against Candida albicans ATCC 10231 assessed as growth inhibition at 300 ug/disk at 37 degC for 48 hr; details: for zone of inhibition at 300 µg/disc: ATCC 10231, 48 h, read-out: IZ
# [2] = tested on: Aspergillus fumigatus; assay: Antifungal activity against Aspergillus fumigatus HIC 6094 assessed as growth inhibition at 37 degC for 48 hr; details: HIC 6094, 48 h
# [3] = tested on: Trichophyton mentagrophytes; assay: Antifungal activity against Trichophyton mentagrophytes IFO 40996 assessed as growth inhibition at 300 ug/disc at 37 degC for 48 hr; details: for zone of inhibition at 300 µg/disc: IFO 40996, 48 h, read-out: IZ
# [4] = tested on: Klebsiella aerogenes; assay: Antibacterial activity against Enterobacter aerogenes MTCC 39 assessed as inhibition zones at 300 ug/disk at 37 degC for 24 hr; details: MTCC 39, 24 h, read-out: IZ
# [5] = tested on: Ditylenchus myceliophagus; assay: Nematicidal activity against Ditylenchus myceliophagus assessed as immobility; details: read-out: LD50 (the source's name)
# [6] = tested on: Lysinibacillus sphaericus; assay: Antibacterial activity against Lysinibacillus sphaericus MTCC 11 assessed as growth arrest at 37 degC for 24 hr; details: MTCC 11, 24 h
# [7] = tested on: Staphylococcus aureus; assay: Antibacterial activity against Staphylococcus aureus MTCC 96 assessed as inhibition zones at 300 ug/disc at 37 degC for 24 hr; details: MTCC 96, 24 h, read-out: IZ
# [8] = tested on: Caenorhabditis elegans; assay: Nematicidal activity against Caenorhabditis elegans assessed as immobility; details: read-out: LD50 (the source's name)
# [9] = tested on: Staphylococcus aureus; assay: Antibacterial activity against Staphylococcus aureus MTCC 96 assessed as growth arrest at 37 degC for 24 hr; details: MTCC 96, 24 h
# [10] = tested on: Candida albicans; assay: Antifungal activity against Candida albicans ATCC 10231 assessed as growth inhibition at 37 degC for 48 hr; details: ATCC 10231, 48 h
# [11] = tested on: Lysinibacillus sphaericus; assay: Antibacterial activity against Lysinibacillus sphaericus MTCC 11 assessed as inhibition zones at 300 ug/disk at 37 degC for 24 hr; details: MTCC 11, 24 h, read-out: IZ
# [12] = tested on: Chromobacterium violaceum; assay: Antibacterial activity against Chromobacterium violaceum MTCC 2656 assessed as inhibition zones at 300 ug/disk at 37 degC for 24 hr; details: MTCC 2656, 24 h, read-out: IZ
# [13] = tested on: Chromobacterium violaceum; assay: Antibacterial activity against Chromobacterium violaceum MTCC 2656 assessed as growth arrest at 37 degC for 24 hr; details: MTCC 2656, 24 h
# [14] = tested on: Klebsiella aerogenes; assay: Antibacterial activity against Enterobacter aerogenes MTCC 39 assessed as growth arrest at 37 degC for 24 hr; details: MTCC 39, 24 h
# [15] = tested on: Trichophyton mentagrophytes; assay: Antifungal activity against Trichophyton mentagrophytes IFO 40996 assessed as growth inhibition at 37 degC for 48 hr
# [16] = tested on: Trichophyton rubrum; assay: Antifungal activity against Trichophyton rubrum IFO 9185 assessed as growth inhibition at 300 ug/disk at 37 degC for 48 hr; details: for zone of inhibition at 300 µg/disc: IFO 9185, 48 h, read-out: IZ
# [17] = tested on: Pseudomonas aeruginosa; assay: Antibacterial activity against Pseudomonas aeruginosa MTCC 741 assessed as inhibition zones at 300 ug/disk at 37 degC for 24 hr; details: MTCC 741, 24 h, read-out: IZ
# [18] = tested on: Bacillus subtilis; assay: Antibacterial activity against Bacillus subtilis MTCC 441 assessed as growth arrest at 37 degC for 24 hr; details: MTCC 441, 24 h
# [19] = tested on: Aspergillus fumigatus; assay: Antifungal activity against Aspergillus fumigatus HIC 6094 assessed as growth inhibition at 300 ug/disc at 37 degC for 48 hr; details: for zone of inhibition at 300 µg/disc: HIC 6094, 48 h, read-out: IZ
# [20] = tested on: Bacillus subtilis; assay: Antibacterial activity against Bacillus subtilis MTCC 441 assessed as inhibition zones at 300 ug/disk at 37 degC for 24 hr; details: MTCC 441, 24 h, read-out: IZ
# [21] = tested on: Pseudomonas aeruginosa; assay: Antibacterial activity against Pseudomonas aeruginosa MTCC 741 assessed as growth arrest at 37 degC for 24 hr; details: MTCC 741, 24 h
# [22] = tested on: Trichophyton rubrum; assay: Antifungal activity against Trichophyton rubrum IFO 9185 assessed as growth inhibition at 37 degC for 48 hr
Compound,MBC [2],MIC [2],zone of inhibition at 300 µg/disc [4],LC50 [5],MBC [6],MIC [6],zone of inhibition at 300 µg/disc [7],LC50 [8],MBC [9],MIC [9],MBC [10],MIC [10],zone of inhibition at 300 µg/disc [11],zone of inhibition at 300 µg/disc [12],MBC [13],MIC [13],MBC [14],MIC [14],zone of inhibition at 300 µg/disc [17],MBC [18],also measured
COc1ccc(Cc2ccc(OC)c(C3SC4C(=NN(Cc5ccccc5)C4c4ccc(F)cc4)N3c3ccc(C)cc3)c2)cc1C1SC2C(=NN(Cc3ccccc3)C2c2ccc(F)cc2)N1c1ccc(C)cc1 (stereo not given),25 µg/mL,25 µg/mL,22 mm,190 µg/mL,12.5 µg/mL,6.25 µg/mL,24 mm,210 µg/mL,6.25 µg/mL,6.25 µg/mL,6.25 µg/mL,3.12 µg/mL,14 mm,17 mm,12.5 µg/mL,12.5 µg/mL,50 µg/mL,12.5 µg/mL,14 mm,12.5 µg/mL,"zone of inhibition at 300 µg/disc [1]: 22 mm; zone of inhibition at 300 µg/disc [3]: 16 mm; MBC ([15]; IFO 40996, 48 h): 25 µg/mL; MIC ([15]; IFO 40996, 48 h): 25 µg/mL; zone of inhibition at 300 µg/disc [16]: 15 mm; MIC [18]: 6.25 µg/mL; zone of inhibition at 300 µg/disc [19]: 16 mm; zone of inhibition at 300 µg/disc [20]: 20 mm; MBC [21]: 25 µg/mL; MIC [21]: 12.5 µg/mL; MBC ([22]; IFO 9185, 48 h): 25 µg/mL; MIC ([22]; IFO 9185, 48 h): 12.5 µg/mL"
COc1ccc(Cc2ccc(OC)c(C3SC4C(=NN(c5ccccc5)C4c4ccc(F)cc4)N3c3ccc(Cl)cc3)c2)cc1C1SC2C(=NN(c3ccccc3)C2c2ccc(F)cc2)N1c1ccc(Cl)cc1 (stereo not given),25 µg/mL,12.5 µg/mL,22 mm,810 µg/mL,50 µg/mL,12.5 µg/mL,20 mm,650 µg/mL,50 µg/mL,25 µg/mL,6.25 µg/mL,6.25 µg/mL,21 mm,20 mm,25 µg/mL,12.5 µg/mL,25 µg/mL,12.5 µg/mL,19 mm,25 µg/mL,"inhibition zone (IZ) [1]: inactive; inhibition zone (IZ) [3]: inactive; MBC ([15]; IFO 40996, 48 h): 12.5 µg/mL; MIC ([15]; IFO 40996, 48 h): 6.25 µg/mL; zone of inhibition at 300 µg/disc [16]: 17 mm; MIC [18]: 6.25 µg/mL; inhibition zone (IZ) [19]: inactive; zone of inhibition at 300 µg/disc [20]: 18 mm; MBC [21]: 12.5 µg/mL; MIC [21]: 6.25 µg/mL; MBC ([22]; IFO 9185, 48 h): 12.5 µg/mL; MIC ([22]; IFO 9185, 48 h): 12.5 µg/mL"
COc1ccc(N2N=C3C(SC(c4cc(Cc5ccc(OC)c(C6SC7C(=NN(c8ccc(OC)cc8)C7c7ccc(F)cc7)N6c6ccc([N+](=O)[O-])cc6)c5)ccc4OC)N3c3ccc([N+](=O)[O-])cc3)C2c2ccc(F)cc2)cc1 (stereo not given),25 µg/mL,12.5 µg/mL,21 mm,920 µg/mL,50 µg/mL,12.5 µg/mL,21 mm,810 µg/mL,25 µg/mL,12.5 µg/mL,12.5 µg/mL,6.25 µg/mL,20 mm,16 mm,25 µg/mL,12.5 µg/mL,12.5 µg/mL,6.25 µg/mL,9 mm,25 µg/mL,"zone of inhibition at 300 µg/disc [1]: 13 mm; inhibition zone (IZ) [3]: inactive; MBC [15]: inactive; MIC [15]: inactive; inhibition zone (IZ) [16]: inactive; MIC [18]: 12.5 µg/mL; inhibition zone (IZ) [19]: inactive; zone of inhibition at 300 µg/disc [20]: 14 mm; MBC [21]: 25 µg/mL; MIC [21]: 12.5 µg/mL; MBC ([22]; IFO 9185, 48 h): 25 µg/mL; MIC ([22]; IFO 9185, 48 h): 12.5 µg/mL"
COc1ccc(Cc2ccc(OC)c(C3SC4C(=NN(C)C4c4ccc(F)cc4)N3c3ccc(Cl)cc3)c2)cc1C1SC2C(=NN(C)C2c2ccc(F)cc2)N1c1ccc(Cl)cc1 (stereo not given),50 µg/mL,6.25 µg/mL,21 mm,190 µg/mL,25 µg/mL,12.5 µg/mL,20 mm,210 µg/mL,12.5 µg/mL,12.5 µg/mL,25 µg/mL,12.5 µg/mL,20 mm,19 mm,50 µg/mL,12.5 µg/mL,25 µg/mL,12.5 µg/mL,21 mm,50 µg/mL,"zone of inhibition at 300 µg/disc [1]: 18 mm; zone of inhibition at 300 µg/disc [3]: 16 mm; MBC [15]: inactive; MIC [15]: inactive; zone of inhibition at 300 µg/disc [16]: 13 mm; MIC [18]: 12.5 µg/mL; zone of inhibition at 300 µg/disc [19]: 15 mm; zone of inhibition at 300 µg/disc [20]: 21 mm; MBC [21]: 25 µg/mL; MIC [21]: 12.5 µg/mL; MBC ([22]; IFO 9185, 48 h): 25 µg/mL; MIC ([22]; IFO 9185, 48 h): 6.25 µg/mL"
COc1ccc(Cc2ccc(OC)c(C3SC4C(=NN(C(C)C)C4c4ccc(F)cc4)N3c3ccc(Cl)cc3)c2)cc1C1SC2C(=NN(C(C)C)C2c2ccc(F)cc2)N1c1ccc(Cl)cc1 (stereo not given),25 µg/mL,25 µg/mL,20 mm,520 µg/mL,50 µg/mL,25 µg/mL,13 mm,670 µg/mL,25 µg/mL,12.5 µg/mL,25 µg/mL,12.5 µg/mL,11 mm,16 mm,25 µg/mL,12.5 µg/mL,50 µg/mL,25 µg/mL,13 mm,25 µg/mL,"zone of inhibition at 300 µg/disc [1]: 10 mm; zone of inhibition at 300 µg/disc [3]: 12 mm; MBC ([15]; IFO 40996, 48 h): 50 µg/mL; MIC ([15]; IFO 40996, 48 h): 25 µg/mL; zone of inhibition at 300 µg/disc [16]: 11 mm; MIC [18]: 12.5 µg/mL; inhibition zone (IZ) [19]: inactive; zone of inhibition at 300 µg/disc [20]: 12 mm; MBC [21]: 25 µg/mL; MIC [21]: 25 µg/mL; MBC [22]: inactive; MIC [22]: inactive"
